Experimental data as given in patent publication US20070099237A1, “Reaction co-crystallization of molecular complexes or co-crystals” (The Regents of The University of Michigan, priority 2005, published 2007).
≈ marks a conversion by molar mass, not a printed value. Like-named read-outs stand apart in the source and are kept apart here.

Assay: Solubility of co-crystal and reactants in organic solvents at 25° C.
Assay type: physicochemical
Settings: mean +/− deviation; for solubility: organic solvent or mixture, thermodynamic from solid
Protocol: The predicted reduction in solubility of the co-crystal is borne out experimentally as illustrated, for example in FIG. 4, which uses the carbamazepine nicotinamide 1:1 co-crystal (CBZ:NCT) for illustration. The CBZ:NCT co-crystal is known; solubilities for the co-crystal and the reactants CBZ and NCT in three solvents (ethanol, […]) are given in the table.
Solubilities are given at 25° C. and are expressed as the mean +/− the deviation for a sample size of 3. It is noted that only in ethyl acetate is the co-crystal the least soluble component. Accordingly, the co-crystal can be precipitated from equimolar solutions of CBZ and NCT in ethyl acetate to produce the co-crystal by cooling or evaporation methods.

[1] = 2-propanol, sample size 3, read-out: Solubility in 2-Propanol
[2] = ethanol, sample size 3, read-out: Solubility in Ethanol
[3] = ethyl acetate, sample size 3, read-out: Solubility in Ethyl acetate

| solubility [1] [mM] | solubility [2] [mM] | solubility [3] [mM] | Solubility in 2-Propanol (2-propanol, sample size 3) [mM] | Solubility in Ethanol (ethanol, sample size 3) [mM] | Solubility in Ethyl acetate (ethyl acetate, sample size 3) [mM] | SMILES |
| --- | --- | --- | --- | --- | --- | --- |
| 39 ± 3 (≈ 9.21 mg/mL) | 108 ± 0.1 (≈ 25.5 mg/mL) | 44 ± 0.1 (≈ 10.4 mg/mL) |  |  |  | NC(=O)N1c2ccccc2C=Cc2ccccc21 [CBZ(III), carbamazepine] |
|  |  |  | 44 ± 3 | 116 ± 3 | 24 ± 1 | NC(=O)N1c2ccccc2C=Cc2ccccc21.NC(=O)c1cccnc1 [CBZ:NCT, Carbamazepine:Nicotinamide co-crystal] |
| 496 ± 4 (≈ 60.6 mg/mL) | 841 ± 8 (≈ 103 mg/mL) | 98 ± 2 (≈ 12 mg/mL) |  |  |  | NC(=O)c1cccnc1 [NCT(I), Nicotinamide] |
